Assay results from paper PMC5406018, “TCR stimulation strength is inversely associated with establishment of functional brain-resident memory CD8 T cells during persistent viral infection” (PLoS Pathogens, 2017).
No end group written: not given here.

Biological target: T1, MHC-I D^b (Mus musculus, UniProt P01899)
T1 construct: endogenous in cells; host or cells: RMA/S cells
T1 sequence (P01899 25-362): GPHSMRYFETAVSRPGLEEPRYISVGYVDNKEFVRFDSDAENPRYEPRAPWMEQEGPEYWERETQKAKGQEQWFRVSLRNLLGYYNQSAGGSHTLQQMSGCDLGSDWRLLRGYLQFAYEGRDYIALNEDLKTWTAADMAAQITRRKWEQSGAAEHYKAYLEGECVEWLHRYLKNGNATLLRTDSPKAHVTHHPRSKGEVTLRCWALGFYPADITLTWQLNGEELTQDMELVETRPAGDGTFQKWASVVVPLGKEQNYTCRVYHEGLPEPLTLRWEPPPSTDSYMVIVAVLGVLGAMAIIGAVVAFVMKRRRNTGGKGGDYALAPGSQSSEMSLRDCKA
T1 sequence (P01887 21-119 partner): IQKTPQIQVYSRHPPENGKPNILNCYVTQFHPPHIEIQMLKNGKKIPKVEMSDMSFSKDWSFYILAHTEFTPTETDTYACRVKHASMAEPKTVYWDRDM
Experiment: RMA/S MHC-I stabilization assay
Settings: RMA/S cells cultured overnight at 26°C, peptide 1 h at RT then 2 h at 37°C; anti-D^b gMFI, percent of maximum; unit inferred; read-out: MHC-I D^b EC50 (MHC-I binding and stabilization)
Procedure: Fig 1 Characterizing the T cell response to analogues of a subdominant CD8 T cell epitope. (A) RMA/S cells were cultured overnight at 26°C. Cells were incubated with the indicated dose of peptide for 1 h at RT followed by incubation at 37C for 2 h. […] (B) RMA/S cells were cultured overnight at […] in 100 μM of peptide. Cells were then resuspended in fresh media, incubated at 37C, and sampled hourly for 4 h. […] Nuclear Nur77 (C) and intracellular IFNγ expression (D) shown. […] All data plotted as percent of maximal expression ± SD. […]
For MHC-I stabilization assays, RMA/S cells were cultured overnight at 26°C, resuspended in RPMI containing 10% FBS (10% RPMI) and peptides of different concentrations, then incubated for 1 h at room temperature followed by 2 h at 37°C. […] Each hour for 4 h an aliquot of cells was stained for 30 mins at 4°C with phycoerythrin-conjugated anti-D^b (clone 28-14-8; eBioscience), acquired on a BD FACSCanto10 instrument, and the geometric mean fluorescence intensity (gMFI) determined using FlowJo Software (Tree Star). The percent maximum gMFI was calculated as (gMFI^peptide-gMFI^no peptide)/(gMFI^max- gMFI^no peptide) x 100. EC50 and T1/2 were calculated using Prism software (GraphPad, La Jolla CA).

Sequence | EC50
MGVANLDNL [LT638] | 0.259 µM
QGINNLDNL [TagV] | 0.175 µM
